# In patent US7192746B2, “α-Isomaltosyltransferase, process for producing the same and use thereof” (Kabushiki Kaisha Hayashibara Seibutsu Kagaku Kenkyujo, priority 2000, dated 2007):
# What was measured:
# Thermostability = assay type: physicochemical; settings: 10% (w/v) aqueous solution, 120° C.; for Purity: HPLC
# Description: After the heating, the aqueous solution was cooled under atmospheric conditions and measured for coloration degree and determined for purity on HPLC in Experiment 1. The coloration degree was evaluated based on the absorbance in a cell with a 1-cm light pass at a wavelength of 480 nm.
# mice = experiment: Acute toxicity test; assay type: in vivo, mouse; settings: oral
# Source text: Based on this, the LD50 of cyclotetrasaccharide was at least 50 g/kg mouse body weight.
# [1] = system: α-isomaltosyl-transferring enzyme from Arthrobacter globiformis A19; experiment: Action on saccharides (substrates, TLC); assay type: biochemical; parameters: key: −: there was found no substrate change before and after the enzymatic reaction; +: there were found both the reduction of substrate and the formation of cyclotetrasaccharide after the enzymatic reaction; settings: partially purified enzyme, 2 units/g substrate, 2% (w/v) substrate, 30° C., pH 6.0, 24 hours
# Outline: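 Substrates 2% (w/v), enzyme 2 units/g substrate, pH 6.0, 30° C., 24 h. Read-out: silica TLC, n-butanol:pyridine:water 6:4:1; sulfuric acid-methanol (total sugar) and diphenylamine-aniline (reducing sugar) staining, pre- vs post-reaction.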
# [2] = system: α-isomaltosyl-transferring enzyme from Arthrobacter ramosus S1; experiment: Action on saccharides (substrates, TLC); assay type: biochemical; parameters: key: −: there was found no substrate change before and after the enzymatic reaction; +: there were found both the reduction of substrate and the formation of cyclotetrasaccharide after the enzymatic reaction; settings: 2 units/g substrate, 2% (w/v) substrate, 30° C., pH 6.0, 24 hours
# Outline: (§1)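 Purified enzyme (2 units/g substrate) was incubated with each saccharide at 2% (w/v), pH 6.0, 30° C. for 24 hours. Reaction mixtures before and after incubation were run on silica gel TLC in n-butanol/pyridine/water (6:4:1), with total sugars stained by sulfuric acid-methanol and reducing sugars by diphenylamine-aniline.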
# [3] = system: α-isomaltosyl-transferring enzyme from Bacillus globisporus C11; experiment: Action on saccharides (substrates, TLC); assay type: biochemical; parameters: key: −: there was found no substrate change before and after the enzymatic reaction; +: there were found both the reduction of substrate and the formation of cyclotetrasaccharide after the enzymatic reaction; settings: 2 units/g substrate, 2% (w/v) substrate, 30° C., pH 6.0, 24 hours
# Outline: as §1
# [4] = system: α-isomaltosyl-transferring enzyme from Bacillus globisporus C9; experiment: Action on saccharides (substrates, TLC); assay type: biochemical; parameters: key: −: there was found no substrate change before and after the enzymatic reaction; +: there were found both the reduction of substrate and the formation of cyclotetrasaccharide after the enzymatic reaction; settings: 2 units/g substrate, 2% (w/v) substrate, 30° C., pH 6.0, 24 hours
# Outline: as §1
# [5] = system: α-isomaltosyl-transferring enzyme from Bacillus globisporus N75; experiment: Action on saccharides (substrates, TLC); assay type: biochemical; parameters: key: −: there was found no substrate change before and after the enzymatic reaction; +: there were found both the reduction of substrate and the formation of cyclotetrasaccharide after the enzymatic reaction; settings: 2 units/g substrate, 2% (w/v) substrate, 30° C., pH 6.0, 24 hours
# Outline: as §1
Compound,Coloration degree (A480 nm) (Thermostability; heating time 0 min),Purity (Thermostability; heating time 0 min) [%],Coloration degree (A480 nm) (Thermostability; heating time 30 min),Purity (Thermostability; heating time 30 min) [%],Coloration degree (A480 nm) (Thermostability; heating time 60 min),Purity (Thermostability; heating time 60 min) [%],Coloration degree (A480 nm) (Thermostability; heating time 90 min),Purity (Thermostability; heating time 90 min) [%],Death at highest possible dose (mice),LD50 (mice),"Enzymatic action for forming cyclotetrasaccharide, Enzyme of Strain A19 [1]","Enzymatic action for forming cyclotetrasaccharide, Enzyme of Strain S1 [2]","Enzymatic action for forming cyclotetrasaccharide, Enzyme of Strain C11 [3]","Enzymatic action for forming cyclotetrasaccharide, Enzyme of Strain C9 [4]","Enzymatic action for forming cyclotetrasaccharide, Enzyme of Strain N75 [5]"
"OCC1OC2OCC3O[C@H](O[C@H]4C(O)C(CO)OC(OCC5O[C@H](O[C@@H](C1O)C2O)C(O)C(O)[C@@H]5O)C4O)C(O)C(O)[C@@H]3O (stereo partly drawn) [Cyclotetrasaccharide, cyclo{→6)-α-D-glucopyranosyl-(1→3)-α-D-glucopyranosyl-(1→6)-α-D-glucopyranosyl-(1→3)-α-D-glucopyranosyl-(1→}]",0.00,100,0.00,100,0.00,100,0.00,100,did not induce death of mouse,at least 50 g/kg mouse body weight,,,,,
"OC[C@@H](O)[C@@H](O[C@H]1O[C@H](CO)[C@@H](O)[C@H](O)[C@H]1O)[C@H](O)[C@@H](O)CO [Maltitol, maltitol]",,,,,,,,,,,−,−,−,−,−
